According to US9492468B2, “Methods and compositions for treatment of acute heart failure” (PERICOR THERAPEUTICS, INC., priority 2008, dated 2016):

Legend:
NT-ProBNP = assay: Plasma NT-proBNP (competitive ELISA), dose escalation study; assay type: in vivo, dog
Method: (§1) Eight heart failure dogs described in Example 1 were used. Seven of 8 dogs underwent two studies, one with active drug GP-531 tartrate and one with vehicle (placebo) and 1 of 8 dogs underwent only one active drug GP-531 study. The order of active drug and placebo was randomized and performed about one week apart. In 6 of 8 dogs, after baseline hemodynamic, and ventriculographic measurements, vehicle was administered as a continuous intravenous infusion for one hour. At the end of one hour, the active drug GP-531 tartrate was administered in 3 escalating dose of continuous intravenous infusion with each dose maintained for one hour. At the end of the last drug dose, infusion was stopped and a washout period of one hour was instituted. The same infusion rates and times between doses were used when vehicle studies were performed. At the end of each hour, hemodynamic and angiographic measurements were made. Venous blood samples were obtained at baseline and at one hour after each dose. Blood samples (at least 10 mL) were centrifuged at 3000 rpm for 10 minutes and plasma withdrawn and placed in cryostorage tubes and stored upright at −20° C. for future use. In 2 of 8 dogs, active drug was administered as bolus followed by a constant infusion for 3 hours as noted below.
Plasma biomarkers were measured in Groups I and II. Troponin I (TnI) was determined in plasma based on the principle of the double antibody sandwich enzyme-linked immunosorbent assay (ELISA) (Hirano, T., et al., Immunol Today 1990, 11:443-449) and n-terminal brain natriuretic peptide (NT-pro-BNP) based on competitive ELISA (Bonow, R. O. Circulation 1996, 93:1946-1950). Both biomarkers were assayed using commercially available assay kits. Kits for NT proBNP and TnI were purchased from ALPCO Diagnostics, Salem, N.H. Using standard curves and software, the concentration of each biomarker was expressed as ng/ml for TnI and fmol/ml for NT-proBNP.

[1] = tested on: dogs with advanced heart failure; assay: Dose escalation / bolus plus infusion study, hemodynamic and ventriculographic measures; assay type: in vivo, dog; conditions: for Cardiac output (CO) / Heart rate (HR) / LV end-diastolic pressure (LVEDP) / LV end-diastolic volume (EDV) / LV end-systolic volume (ESV) / Mean aortic pressure (mAoP) / Stroke volume (SV) / Systemic vascular resistance (SVR): 1 h
Method: Studies were performed in purpose-bred, healthy and conditioned mongrel dogs weighing between 20 and 30 kg. The study was approved by Henry Ford Health System Institutional Animal Care and Use Committee and conformed to the National Institute of Health “Guide and Care for Use of Laboratory Animals” and the “Position of the American Heart Association on Research Animal Use” (Position of the American Heart Association on Research Animal Use. Circulation 1985; 71; 49A-50A).
Chronic LV dysfunction and failure was produced by multiple sequential intracoronary embolizations with polystyrene Latex; coronary microembolizations were performed during cardiac catheterization under general anesthesia and sterile conditions (Sabbah H N, et al. Am J Physiol (1991) 260:H1379-84; Sabbah H N, et al. Circulation (1994) 89:2852-9; Sabbah H N, et al. Am J Cardiol 99:41 A-46A, (2007)). Anesthesia was induced using a combination of intravenous injections of oxymorphone hydrochloride (0.22 mg/kg) and diazepam (0.2-0.6 mg/kg). Plane of anesthesia was maintained throughout the study using 1% to 2% isoflurane. Left and right heart catheterizations were performed via a femoral arteriotomy and venotomy. Coronary microembolizations were discontinued when LV ejection fraction, determined angiographically, was about 25%. A period of 2 weeks was allowed after the last microembolization to ensure that infarctions produced by the last microembolizations have completely healed and heart failure was established before the study is undertaken.
as §1
Active drug was used in dog groups as follows:
1. In 3 of 8 dogs, escalating doses of 30, 100 and 300 μg/kg/min GP-531 tartrate were used (Group I)
2. In another 3 of 8 dogs, escalating doses of 3, 10 and 30 μg/kg/min GP-531 tartrate were used (Group II).
3. In 1 of 8 dogs, active drug was administered as 700 μg/kg GP-531 tartrate bolus followed by a constant infusion of 10 μg/kg/min GP-531 tartrate for 3 hours.
4. In another 1 of 8 dogs, two active drug studies were performed. In one study, active drug was administered as 70 μg/kg bolus followed by a constant infusion of 1.0 μg/kg/min for 4 hours and in the second study, active drug was administered as 210 μg/kg bolus followed by a constant infusion of 3.0 μg/kg/min for 4 hours.
Study Primary End-Points were: (1) change in LV ejection fraction determined from ventriculography and (2) change in LV end-systolic and end-diastolic volume determined from ventriculography.
All hemodynamic measurements were made during left and right heart catheterizations in anesthetized dogs at each specified study time point. […]

[2] = Group I HF dogs n=3, iv 30 μg/kg/min
[3] = Group I HF dogs n=3, iv 100 μg/kg/min
[4] = Group I HF dogs n=3, iv 300 μg/kg/min
[5] = Group II HF dogs n=3, iv 3 μg/kg/min
[6] = Group II HF dogs n=3, iv 10 μg/kg/min
[7] = Group II HF dogs n=3, iv 30 μg/kg/min

NC(=O)c1ncn(C2OC(CNCc3ccccc3)C(O)C2O)c1N [GP-531, 5-amino-1-β-D-(5-benzylamino-5-deoxy-1-β-D-ribofuranosyl)imidazole-4 carboxamide]
Plasma NT-ProBNP (NT-ProBNP; Group I HF dogs n=3, 1 h washout after 30/100/300 μg/kg/min): 204 ± 5 fmol/mL
Plasma NT-ProBNP (NT-ProBNP; Group I HF dogs n=3, iv 30 μg/kg/min, 1 h): 128 ± 23 fmol/mL
Plasma NT-ProBNP (NT-ProBNP; Group I HF dogs n=3, iv 100 μg/kg/min, 1 h): 131 ± 8 fmol/mL
Plasma NT-ProBNP (NT-ProBNP; Group I HF dogs n=3, iv 300 μg/kg/min, 1 h): 121 ± 13 fmol/mL
Plasma NT-ProBNP (NT-ProBNP; Group II HF dogs n=3, 1 h washout after 3/10/30 μg/kg/min): 179 ± 6 fmol/mL
Plasma NT-ProBNP (NT-ProBNP; Group II HF dogs n=3, iv 3 μg/kg/min, 1 h): 225 ± 34 fmol/mL
Plasma NT-ProBNP (NT-ProBNP; Group II HF dogs n=3, iv 10 μg/kg/min, 1 h): 155 ± 1 fmol/mL
Plasma NT-ProBNP (NT-ProBNP; Group II HF dogs n=3, iv 30 μg/kg/min, 1 h): 123 ± 21 fmol/mL
Effect on hemodynamic or ventriculographic measures of LV function ([1]; 1 HF dog, 70 μg/kg bolus then 1.0 μg/kg/min for 4 h): no effects
Cardiac output (CO) [1, 2]: 1.90 ± 0.19 L/min
Heart rate (HR) [1, 2]: 88 ± 9 beats/min
LV end-diastolic pressure (LVEDP) [1, 2]: 11 ± 1 mmHg
LV end-diastolic volume (EDV) [1, 2]: 69 ± 6 mL
LV end-systolic volume (ESV) [1, 2]: 47 ± 4 mL
Mean aortic pressure (mAoP) [1, 2]: 70 ± 2 mmHg
Stroke volume (SV) [1, 2]: 22 ± 2 mL
Systemic vascular resistance (SVR) [1, 2]: 2995 ± 213 dynes-sec-cm^−5
Cardiac output (CO) [1, 3]: 2.06 ± 0.28 L/min
Heart rate (HR) [1, 3]: 90 ± 9 beats/min
LV end-diastolic pressure (LVEDP) [1, 3]: 10 ± 1 mmHg
LV end-diastolic volume (EDV) [1, 3]: 68 ± 4 mL
LV end-systolic volume (ESV) [1, 3]: 45 ± 4 mL
Mean aortic pressure (mAoP) [1, 3]: 69 ± 2 mmHg
Stroke volume (SV) [1, 3]: 23 ± 1 mL
Systemic vascular resistance (SVR) [1, 3]: 2792 ± 360 dynes-sec-cm^−5
Cardiac output (CO) [1, 4]: 2.06 ± 0.22 L/min
Heart rate (HR) [1, 4]: 88 ± 6 beats/min
LV end-diastolic pressure (LVEDP) [1, 4]: 11 ± 1 mmHg
LV end-diastolic volume (EDV) [1, 4]: 68 ± 4 mL
LV end-systolic volume (ESV) [1, 4]: 44 ± 4 mL
Mean aortic pressure (mAoP) [1, 4]: 73 ± 3 mmHg
Stroke volume (SV) [1, 4]: 23 ± 1 mL
Systemic vascular resistance (SVR) [1, 4]: 2886 ± 67 dynes-sec-cm^−5
Cardiac output (CO) [1, 5]: 1.47 ± 0.09 L/min
Heart rate (HR) [1, 5]: 80 ± 2 beats/min
LV end-diastolic pressure (LVEDP) [1, 5]: 12 ± 1 mmHg
LV end-diastolic volume (EDV) [1, 5]: 62 ± 2 mL
LV end-systolic volume (ESV) [1, 5]: 43 ± 2 mL
Mean aortic pressure (mAoP) [1, 5]: 70 ± 3 mmHg
Stroke volume (SV) [1, 5]: 18 ± 1 mL
Systemic vascular resistance (SVR) [1, 5]: 3870 ± 366 dynes-sec-cm^−5
Cardiac output (CO) [1, 6]: 1.45 ± 0.06 L/min
Heart rate (HR) [1, 6]: 82 ± 6 beats/min
LV end-diastolic pressure (LVEDP) [1, 6]: 12 ± 1 mmHg
LV end-diastolic volume (EDV) [1, 6]: 58 ± 4 mL
LV end-systolic volume (ESV) [1, 6]: 39 ± 3 mL
Mean aortic pressure (mAoP) [1, 6]: 65 ± 2 mmHg
Stroke volume (SV) [1, 6]: 19 ± 1 mL
Systemic vascular resistance (SVR) [1, 6]: 3379 ± 26 dynes-sec-cm^−5
Cardiac output (CO) [1, 7]: 1.64 ± 0.06 L/min
Heart rate (HR) [1, 7]: 80 ± 3 beats/min
LV end-diastolic pressure (LVEDP) [1, 7]: 12 ± 2 mmHg
LV end-diastolic volume (EDV) [1, 7]: 57 ± 4 mL
LV end-systolic volume (ESV) [1, 7]: 36 ± 3 mL
Mean aortic pressure (mAoP) [1, 7]: 69 ± 3 mmHg
Stroke volume (SV) [1, 7]: 21 ± 2 mL
Systemic vascular resistance (SVR) [1, 7]: 3388 ± 235 dynes-sec-cm^−5
De-novo ventricular arrhythmias ([1]; HF dogs, iv 3 to 300 μg/kg/min): without triggering de-novo ventricular arrhythmias
Hypotension ([1]; HF dogs, iv 3 to 300 μg/kg/min): without inducing hypotension
